Test results from patent US20250051321A1, “TRICYCLIC DERIVATIVE AND PREPARATION METHOD THEREFOR AND APPLICATION THEREOF” (SHANGHAI JEMINCARE PHARMACEUTICAL CO., LTD., priority 2021, published 2025).
Where two headings read alike, the source gives them in different places.

System: plasma LPA 18:1 and LPA 18:2
Assay: Human plasma ex vivo assay (LPA 18:1 / 18:2 by LC-MS/MS)
Format: biochemical
Conditions: 37° C., 2 hours
Protocol: The collected plasma was centrifuged at 4000 rpm for 15 minutes at 4° C. The supernatant was aliquoted into a 96-well plate (25 μL per well), sealed, and frozen at −80° C. for further use.
LPA 17:0 powder was dissolved in a mixed solution of water: isopropanol: formic acid (1:1:1) to a final concentration of […]. The mixture was aliquoted and frozen at −20° C.
1 volume of formic acid was added to 1000× methanol, mixed well, and stored at 4° C. a) The 96-well plate containing frozen plasma was removed from the −80° C. freezer and thawed on ice at room temperature. b) 6 μL of 50× LPA 17:0 (internal standard) and 264 μL of 0.1% FA were added to a clean well of the 96-well plate; the final concentration of LPA 17:0 (internal standard) was 50 nM. c) 6× compound was 1:3 serially diluted to a total of 8 concentrations, and 5 μL of the compound per well was added to the 96-well plate containing plasma. The maximum final concentration of the compound was 10 μM, and the final concentration of DMSO was 0.1%. The plate was centrifuged at 300 rpm for 30 seconds. The DMSO control sample reacted for 0 hours was used as the minimum value (Min), and the DMSO control sample reacted for 2 hours was used as the maximum value (Max). […]
d) The DMSO sample reacted for 0 hours was rapidly transferred to 0.1% FA solution containing the internal standard in step b) to terminate the reaction and precipitate plasma proteins. e) The 96-well plate containing plasma and compounds was rapidly incubated in a 37° C. incubator for 2 hours. After the incubation, 6 μL of 10× LPA 17:0 and 264 μL of 0.1% FA were added to each well to terminate the reaction and precipitate plasma proteins. […]
f) All the samples were mixed well with a pipette, and centrifuged at 4000 rpm for 10 minutes at 4° C. 150 μL of the supernatant was added to a 96-well U-bottom plate (Thermo 267245), sealed with silica gel, and then loaded. The contents of LPA 18:1 and LPA 18:2 in the samples were detected by LC-MS/MS system.
LPA 18:1(or 18:2) relative content=LPA 18:1(or 18:2) peak area/LPA 17:0 peak area Percentage reduction (%) in plasma LPA18:1(or 18:2)=(Max−X)/(Max−Min)*100 Max: LPA 18:1 (or 18:2) relative content of the DMSO sample reacted for 2 hours Min: LPA 18:1 (or 18:2) relative content of the DMSO sample reacted for 0 hours X: LPA 18:1 (or 18:2) relative content of the sample after compound treatment for 2 hours The IC50 of the compounds was calculated by fitting a nonlinear regression through percentage reduction in plasma LPA 18:1 (or 18:2) and log value of compound concentration using the software GraphPad Prism 8.
Y=Bottom+(Top−Bottom)/(1+10^((Log IC50−X)*Hill Slope))

[1] = LPA 18:1, read-out: Human plasma ex vivo assay IC50 (18:1 LPA)
[2] = LPA 18:2, read-out: Human plasma ex vivo assay IC50 (18:2 LPA)

| IC50 [1] | IC50 [2] | Compound |
| --- | --- | --- |
| 332 nM | 576 nM | CN(c1nc(-c2ccc(F)cc2)c(C#N)s1)c1c2c(nc3c(F)cc(N4CC5(CN(C(=O)C6CCC(=O)O6)C5)C4)cc13)C(O)CC2 (stereo not shown) [Example E62] |
| 222 nM | 164 nM | CN(c1nc(-c2ccc(F)cc2)c(C#N)s1)c1c2c(nc3c(F)cc(N4CC5(CN(CC(=O)N6CC[C@@H](O)C6)C5)C4)cc13)C(O)CC2 (stereo partly shown) [Example E31] |
| 465 nM | 464 nM | CCc1nc2c(C)cc(N3CCN(CC(=O)N4CC(O)C4)CC3)cn2c1N(C)c1nc(-c2ccc(F)cc2)c(C#N)s1 [GLPG1690, reference compound] |
| 183 nM | 171 nM | CN(c1nc(-c2ccc(F)cc2)c(C#N)s1)c1c2c(nc3c(F)cc(N4CC5(CN(CC(=O)N6CC(O)C6)C5)C4)cc13)C(O)CC2 (stereo not shown) [Example E57] |
| 654 nM | 737 nM | CC(C)C(=O)N1CC2(C1)CN(c1cc(F)c3nc4c(c(N(C)c5nc(-c6ccc(F)cc6)c(C#N)s5)c3c1)CCC4O)C2 (stereo not shown) [Example E43] |
| 165 nM | 150 nM | COC(C)(C)C(=O)N1CC2(C1)CN(c1cc(F)c3nc4c(c(N(C)c5nc(-c6ccc(F)cc6)c(C#N)s5)c3c1)CCC4O)C2 (stereo not shown) [Example E30] |
| 462 nM | 448 nM | CN(c1nc(-c2ccc(F)cc2)c(C#N)s1)c1c2c(nc3c(F)cc(N4CC5(CN(C(=O)C6CCCC6)C5)C4)cc13)C(O)CC2 (stereo not shown) [Example E60] |
| 194 nM | 206 nM | CN(c1nc(-c2ccc(F)cc2)c(C#N)s1)c1c2c(nc3ccc(N4CCN(CC(=O)N5CC(O)C5)CC4)nc13)COC2 [Example A13] |
| 240 nM | 405 nM | CN(c1nc(-c2ccc(F)cc2)c(C#N)s1)c1c2c(nc3c(F)cc(N4CC5(CN(C(=O)C6(C)CCOC6)C5)C4)cc13)C(O)CC2 (stereo not shown) [Example E59] |
| 348 nM | 850 nM | CN(c1nc(-c2ccc(F)cc2)c(C#N)s1)c1c2c(nc3c(F)cc(N4CC5(CN(C(=O)[C@@H]6CCCN6C)C5)C4)cc13)C(O)CC2 (stereo partly shown) [Example E51] |
| 584 nM | 356 nM | CN(c1nc(-c2ccc(F)cc2)c(C#N)s1)c1c2c(nc3c(F)cc(N4CC5(CCN(CC(=O)N6CC(O)C6)CC5)C4)cc13)C(O)CC2 (stereo not shown) [Example E45] |
| 583 nM | 839 nM | CN(c1nc(-c2ccc(F)cc2)c(C#N)s1)c1c2c(nc3c(F)cc(N4CC5(CN(C(=O)[C@H]6CCCO6)C5)C4)cc13)C(O)CC2 (stereo partly shown) [Example E61] |
| 412 nM | 469 nM | CN1CCC(F)(C(=O)N2CC3(C2)CN(c2cc(F)c4nc5c(c(N(C)c6nc(-c7ccc(F)cc7)c(C#N)s6)c4c2)CCC5O)C3)C1 (stereo not shown) [Example E42] |
| 499 nM | 440 nM | CN(c1nc(-c2ccc(F)cc2)c(C#N)s1)c1c2c(nc3c(F)cc(N4CC5(CN(C(=O)C6CCOC6=O)C5)C4)cc13)C(O)CC2 (stereo not shown) [Example E56] |
| 293 nM | 296 nM | CN(c1nc(-c2ccc(F)cc2)c(C#N)s1)c1c2c(nc3c(F)cc(N4CC5(CN(CC(=O)N6CC(C)(O)C6)C5)C4)cc13)C(O)CC2 (stereo not shown) [Example E44] |
| 369 nM | 496 nM | CN(c1nc(-c2ccc(F)cc2)c(C#N)s1)c1c2c(nc3c(F)cc(N4CC5(CN(C(=O)C(C)(C)O)C5)C4)nc13)C(O)CC2 (stereo not shown) [Example E65] |
| 437 nM | 409 nM | CN(c1nc(-c2ccc(F)cc2)c(C#N)s1)c1c2c(nc3c(F)cc(N4CC5(CN(C(=O)CN6CC(O)C6)C5)C4)cc13)C(O)CC2 (stereo not shown) [Example E47] |
| 232 nM | 221 nM | CN(c1nc(-c2ccc(F)cc2)c(C#N)s1)c1c2c(nc3ccc(N4CC5(CN(C(=O)C(C)(C)O)C5)C4)nc13)CC2 [Example C24] |
| 583 nM | 546 nM | CN(c1nc(-c2ccc(F)cc2)c(C#N)s1)c1c2c(nc3c(F)cc(N4CC5(CN(C(=O)[C@H]6CCCN6C)C5)C4)cc13)C(O)CC2 (stereo partly shown) [Example E50] |

| IC50 [1] | IC50 [2] | Compound |
| --- | --- | --- |
| – | 336 nM | CN(c1nc(-c2ccc(F)cc2)c(C#N)s1)c1c2c(nc3c(F)cc(N4CCN(CC(=O)N5CC[C@@H](O)C5)CC4)cc13)C(O)CC2 (stereo partly shown) [Example E40] |
| 670 nM | 423 nM | CN(c1nc(-c2ccc(F)cc2)c(C#N)s1)c1c2c(nc3c(F)cc(N4CC5(CN(C(=O)C6(N)CCOC6)C5)C4)cc13)C(O)CC2 (stereo not shown) [Example E52] |
| 263 nM | 271 nM | CN(c1nc(-c2ccc(F)cc2)c(C#N)s1)c1c2c(nc3c(F)cc(N4CC5(CN(C(=O)C6CC(O)C6)C5)C4)cc13)C(O)CC2 (stereo not shown) [Example E58] |
| 740 nM | 671 nM | CN(c1nc(-c2ccc(F)cc2)c(C#N)s1)c1c2c(nc3c(F)cc(N4CCC5(CCN(CC(=O)N6CC(O)C6)CC5)C4)cc13)C(O)CC2 (stereo not shown) [Example E48] |
| 371 nM | 308 nM | CN(c1nc(-c2ccc(F)cc2)c(C#N)s1)c1c2c(nc3c(F)cc(N4CC5(CN(C(=O)C(C)(C)O)C5)C4)cc13)C(=O)CC2 [Example E36] |
| 526 nM | 522 nM | CN(c1nc(-c2ccc(F)cc2)c(C#N)s1)c1c2c(nc3c(F)cc(N4CC5(CN(C(=O)C(C)(C)N)C5)C4)cc13)C(O)CC2 (stereo not shown) [Example E29] |
| 494 nM | 576 nM | CN(c1nc(-c2ccc(F)cc2)c(C#N)s1)c1c2c(nc3c(F)cc(N4CC5(CN(C(=O)C6CC(=O)OC67CCCC7)C5)C4)cc13)C(O)CC2 (stereo not shown) [Example E49] |
| 372 nM | 366 nM | Cc1cc(N2CC3(CN(C(=O)C(C)(C)O)C3)C2)nc2c(N(C)c3nc(-c4ccc(F)cc4)c(C#N)s3)c3c(nc12)[C@](C)(O)CC3 (single isomer, unassigned) [Example E25-a] |
| 317 nM | 398 nM | CN(c1nc(-c2ccc(F)cc2)c(C#N)s1)c1c2c(nc3c(F)cc(N4CC5(CN(C(=O)CO)C5)C4)cc13)C(O)CC2 (stereo not shown) [Example E39] |
| 298 nM | 271 nM | CN(c1nc(-c2ccc(F)cc2)c(C#N)s1)c1c2c(nc3c(F)cc(N4CC5(CN(C(=O)CN6CC[C@H](O)C6)C5)C4)cc13)C(O)CC2 (stereo partly shown) [Example E28] |
| 301 nM | 393 nM | CN(c1nc(-c2ccc(F)cc2)c(C#N)s1)c1c2c(nc3c(F)cc(N4CC5(CN(C(=O)C(C)(C)O)C5)C4)cc13)C(C)(O)CC2 (stereo not shown) [Example E35] |
| 305 nM | 295 nM | CN(c1nc(-c2ccc(F)cc2)c(C#N)s1)c1c2c(nc3c(F)cc(N4CCN(CC(=O)N5CC[C@H](O)C5)CC4)cc13)C(O)CC2 (stereo partly shown) [Example E41] |
| 373 nM | 489 nM | Cc1cc(N2CC3(CN(C(=O)C(C)(C)O)C3)C2)nc2c(N(C)c3nc(-c4ccc(F)cc4)c(C#N)s3)c3c(nc12)[C@H](O)CC3 (single isomer, unassigned) [Example E32-b] |
| 323 nM | 154 nM | CC(C(=O)N1CC(O)C1)N1CCN(c2cc(F)c3nc4c(c(N(C)c5nc(-c6ccc(F)cc6)c(C#N)s5)c3c2)CCC4O)CC1 (stereo not shown) [Example E33] |
| 323 nM | 331 nM | Cc1cc(N2CC3(CN(C(=O)C(C)(C)O)C3)C2)nc2c(N(C)c3nc(-c4ccc(F)cc4)c(C#N)s3)c3c(nc12)[C@@H](O)CC3 (single isomer, unassigned) [Example E32-a] |
| 287 nM | 314 nM | CN(c1nc(-c2ccc(F)cc2)c(C#N)s1)c1c2c(nc3c(F)cc(N4CC5(CN(C(=O)CN6CC[C@@H](O)C6)C5)C4)cc13)C(O)CC2 (stereo partly shown) [Example E27] |
| 725 nM | 483 nM | CN(c1nc(-c2ccc(F)cc2)c(C#N)s1)c1c2c(nc3c(F)cc(N4CC5(CN(C(=O)[C@@H]6CCCO6)C5)C4)cc13)[C@@H](O)CC2 (single isomer, unassigned) [Example E54-a] |
| 388 nM | 284 nM | CN(c1nc(-c2ccc(F)cc2)c(C#N)s1)c1c2c(nc3c(F)cc(N4CC5(CN(C(=O)C(C)(C)O)C5)C4)cc13)[C@@](C)(O)CC2 (single isomer, unassigned) [Example E35-a] |
